These results are taken from US8859545B2, “Tetrahydronaphthyridine and tetrahydropyrido[4,3-D]pyrimidine compounds and compositions thereof useful for the treatment of inflammatory and respiratory diseases” (Evotec AG, priority 2005, dated 2014).

The assay deals with P2X2/3 chimera (P2X2/3C). As to the kind of experiment: Calcium uptake assay (P2X antagonist assay, agonist-induced calcium influx). In kind it is cell-based. From the text:
Human P2X3 (Accession no. NM_002559), P2X2 (Accession no. NM_170682) and Rat P2X3 (Accession no. NM_031075) and P2X2 (Accession no. NM_053656) are cloned into a mammalian expression vector (e.g., pcDNA5/TO or pcDNA3 Invitrogen). For coexpression of P2X2 and P2X3, the coding regions of both receptors were cloned into a bicistronic vector using methods similar to those described by Kawashima et al., Receptors Channels 5:53-60, 1998. The P2X2/3 chimera clone was created as described by Neelands et al, and then cloned into an expression vector as above. Receptors are expressed in cells (e.g., HEK293 or 1321N1) via transient transfection using standard lipid mediated transfection, or by creation of stable transfectants for each receptor. Cell lines are maintained in DMEM+5% Glutamax, the appropriate level of selective antibiotic, and 10% heat inactivated FBS.
The agonist EC50 is determined at the start of the assay and compound IC50 experiments are run using a set agonist concentration (EC50-90 depending on cell line) as stimulus. The agonists used are αβMeATP, ATP, or other ATP analogs. Compounds may be tested at concentrations ranging from 1 μM to 10 μM. Functional activity of compounds at the P2X receptor is determined by measuring their ability to inhibit agonist-induced calcium influx. Compounds may be tested for antagonist activity against the P2X2/3 chimera, the P2X3 homomer, or the P2X2/3 heteromer. To test for antagonist activity, cells expressing the appropriate receptor are seeded onto 96 or 384 well plates 18-24 hours prior to assay. On the day of the assay, cells are loaded with calcium-sensitive fluorescent dye (e.g., Fluo-4 no wash reagent-Invitrogen cat# F36206, or the BD™ PBX Calcium Assay Kit-BD cat#640175) in Hank's Buffered Salt Solution (HBSS) with up to 10 mM supplemental CaCl2. Plates are incubated at 37° C. and then equilibrated at room temperature. Antagonism of agonist-induced calcium influx is measured using a fluorescent imaging plate reader. The assay comprises two stages: a pre-treatment phase followed by a treatment phase. Compounds may be tested as follows: For the pre-treatment phase, 50 μL of 3× concentration of test compound in HBSS is added to cells containing 100 μL of dye loading media to achieve a final concentration of 1×. For the treatment phase, at a set interval after pre-treatment, 50 μL of 1× test compound plus 4× agonist solution is added to cells. Fluorescence is measured at 0.1-3 second intervals with an excitation wavelength of 494 nm and an emission wavelength of 515 nm. Responses are measured as peak fluorescence after compound-agonist addition minus baseline fluorescence prior to treatment. Percent inhibition is calculated as follows: […]
A calcium uptake assay was performed as described in paragraphs […] above.

[1] abbreviates: at 3 μM (symbol before the slash).
The mark [2] stands for this setting: at 10 μM (symbol after the slash).

Structures can show the parent of a compound that is named as a salt.

As for `Cc1ccc(N2CCc3ncnc(NCc4cc(Cl)cc(Cl)c4)c3C2)nc1` [Compound 115], the “Ca Influx P2X2/3C % Inhibition at 3 μM/10 μM” value (from here on “Ca Influx P2X2/3C % Inhibition”) under setting [1] was “+/ (compound exhibited 0-25% inhibition at 3 μM)”.
With `O=S(=O)(c1ccc(Nc2ncnc3c2CN(c2ncccc2Cl)CC3)cc1)C(F)(F)F` [Compound 6, 6-(3-Chloropyridin-2-yl)-5,6,7,8-tetrahydro-N-(4-(trifluoromethylsulfonyl)phenyl)pyrido[4,3-d]pyrimidin-4-amine], the “Ca Influx P2X2/3C % Inhibition” value under setting [1] is “+/ (compound exhibited 0-25% inhibition at 3 μM)”.
As for `Cc1ccc(N2CCc3ncnc(NCc4cccc(F)c4)c3C2)nc1` [Compound 57], under setting [1], the “Ca Influx P2X2/3C % Inhibition” value was “++++/ ^ (compound exhibited 75% or greater inhibition at 3 μM)”.
In the case of `COc1ccc(CN(C)c2ncnc3c2CN(c2ccc(C)cn2)CC3)cc1OC` [Compound 59], the “Ca Influx P2X2/3C % Inhibition” value under setting [1] is recorded as “++ (compound exhibited 25-50% inhibition at 3 μM)” and the “Ca Influx P2X2/3C % Inhibition” value under setting [2] is on record as “**** (compound exhibited 25-50% inhibition at 10 μM)”.
As for `Cc1ccc(N2CCc3ncnc(NCCc4cccc(C(F)(F)F)c4)c3C2)nc1` [Compound 61], the “Ca Influx P2X2/3C % Inhibition” value under setting [1] is “++++ (compound exhibited 75% or greater inhibition at 3 μM)” and the “Ca Influx P2X2/3C % Inhibition” value under setting [2] is “**** (compound exhibited 25-50% inhibition at 10 μM)”.
For the compound `Cc1ccc(N2CCc3ncnc(NCc4cccc(C)c4C)c3C2)nc1` [Compound 80], the “Ca Influx P2X2/3C % Inhibition” value under setting [1] is reported as “+/ (compound exhibited 0-25% inhibition at 3 μM)”.
On to `Cc1ccc(N2CCc3ncnc(NCc4cc(C(F)(F)F)cc(C(F)(F)F)c4)c3C2)nc1` [Compound 125], for which the “Ca Influx P2X2/3C % Inhibition” value under setting [1] is “+/ (compound exhibited 0-25% inhibition at 3 μM)”.
With `Cc1ccc(N2CCc3ncnc(N(C)Cc4ccc(F)cc4)c3C2)nc1` [Compound 67], the “Ca Influx P2X2/3C % Inhibition” value is given as “+ (compound exhibited 0-25% inhibition at 3 μM)” under setting [1] and “*** (compound exhibited 25-50% inhibition at 10 μM)” under setting [2].
On to `Cc1ccc(N2CCc3ncnc(NCc4ccc(Cl)cc4)c3C2)nc1` [Compound 25], for which the “Ca Influx P2X2/3C % Inhibition” value under setting [1] was “++++/ ^ (compound exhibited 75% or greater inhibition at 3 μM)”.
With `COc1ccccc1CNc1ncnc2c1CN(c1ccc(C)cn1)CC2` [Compound 27], the “Ca Influx P2X2/3C % Inhibition” value under setting [2] is “/**** (compound exhibited 25-50% inhibition at 10 μM)”.
Consider `Cc1ccc(N2CCc3ncnc(NCc4cc(Cl)ccc4F)c3C2)nc1` [Compound 111], for which, under setting [1], the “Ca Influx P2X2/3C % Inhibition” value is on record as “+++/ ^ (compound exhibited 50-75% inhibition at 3 μM)”.
On to `Cc1ccc(N2CCc3ncnc(NCc4ccc(F)c(C)c4)c3C2)nc1` [Compound 98], for which the “Ca Influx P2X2/3C % Inhibition” value under setting [1] was “++++/ ^ (compound exhibited 75% or greater inhibition at 3 μM)”.
`Cc1ccc(N2CCc3ncnc(NCC4CCCCC4)c3C2)nc1` [Compound 26]: under setting [2], the “Ca Influx P2X2/3C % Inhibition” value is recorded as “/**** (compound exhibited 25-50% inhibition at 10 μM)”.
Take `Cc1ccc(N2CCc3ncnc(N(C)Cc4ccc(C(F)(F)F)cc4)c3C2)nc1` [Compound 69]: the “Ca Influx P2X2/3C % Inhibition” value under setting [1] was “+/ (compound exhibited 0-25% inhibition at 3 μM)”.
For the compound `Cc1ccc(N2CCc3ncnc(NCc4ccc(F)c(C(F)(F)F)c4)c3C2)nc1` [Compound 76], under setting [1], the “Ca Influx P2X2/3C % Inhibition” value was “+/ (compound exhibited 0-25% inhibition at 3 μM)”.
For the compound `Cc1ccc(CNc2ncnc3c2CN(c2ccc(C)cn2)CC3)cc1` [Compound 56], under setting [1], the “Ca Influx P2X2/3C % Inhibition” value is “++++/ ^ (compound exhibited 75% or greater inhibition at 3 μM)”.
Consider `CC1(C)CNc2cc(Nc3ncnc4c3CN(c3ncccc3Cl)CC4)ccc21` [Compound 15, [6-(3-Chloro-pyridin-2-yl)-5,6,7,8-tetrahydro-pyrido[4,3-d]pyrimidin-4-yl]-(3,3-dimethyl-2,3-dihydro-1H-indol-6-yl)-amine HCl salt], for which the “Ca Influx P2X2/3C % Inhibition” value under setting [2] is reported as “/* (compound exhibited 0-25% inhibition at 10 μM)”.
Take `Cc1ccc(N2CCc3ncnc(NCc4ccc5c(c4)OCO5)c3C2)nc1` [Compound 37]: the “Ca Influx P2X2/3C % Inhibition” value under setting [1] is “++++/ ^ (compound exhibited 75% or greater inhibition at 3 μM)”.
For the compound `Cc1ccc(N2CCc3ncnc(NCCc4ccccc4)c3C2)nc1` [Compound 45], the “Ca Influx P2X2/3C % Inhibition” value under setting [1] is reported as “++++/ ^ (compound exhibited 75% or greater inhibition at 3 μM)”.
The same measure, in the same setting: for `Cc1ccc(N2CCc3ncnc(NCCc4ccc(Cl)c(Cl)c4)c3C2)nc1` [Compound 54] the value was “+++/ ^ (compound exhibited 50-75% inhibition at 3 μM)”.
Consider `CC(C)(C)c1ccc(Nc2ncnc3c2CN(c2ncccc2Cl)CC3)cn1` [Compound 17, (6-tert-Butyl-pyridin-3-yl)-[6-(3-chloro-pyridin-2-yl)-5,6,7,8-tetrahydro-pyrido[4,3-d]pyrimidin-4-yl]-amine], for which, under setting [2], the “Ca Influx P2X2/3C % Inhibition” value was “/* (compound exhibited 0-25% inhibition at 10 μM)”.
With `CN1CC(C)(C)c2ccc(Nc3ncnc4c3CN(c3ncccc3Cl)CC4)cc21` [Compound 16, [6-(3-Chloro-pyridin-2-yl)-5,6,7,8-tetrahydro-pyrido[4,3-d]pyrimidin-4-yl]-(3,3-dimethyl-2,3-dihydro-1-methyl-indol-6-yl)-amine], the “Ca Influx P2X2/3C % Inhibition” value under setting [1] was “+/ (compound exhibited 0-25% inhibition at 3 μM)”.
Consider `COc1cccc(CCNc2ncnc3c2CN(c2ccc(C)cn2)CC3)c1` [Compound 46], for which the “Ca Influx P2X2/3C % Inhibition” value under setting [1] is on record as “++++/ ^ (compound exhibited 75% or greater inhibition at 3 μM)”.
For the compound `Cc1ccc(N2CCc3ncnc(NCc4ccc(Cl)cc4Cl)c3C2)nc1` [Compound 78], the “Ca Influx P2X2/3C % Inhibition” value under setting [1] is listed as “+/ (compound exhibited 0-25% inhibition at 3 μM)”.
On to `COc1ccc(CN(C)c2ncnc3c2CN(c2ccc(C)cn2)CC3)cc1` [Compound 68], for which, under setting [1], the “Ca Influx P2X2/3C % Inhibition” value was “+/ (compound exhibited 0-25% inhibition at 3 μM)”.
On to `Cc1ccc(N2CCc3ncnc(NCCc4ccccc4Cl)c3C2)nc1` [Compound 32], for which the “Ca Influx P2X2/3C % Inhibition” value under setting [1] is recorded as “++++ (compound exhibited 75% or greater inhibition at 3 μM)” and the “Ca Influx P2X2/3C % Inhibition” value under setting [2] is reported as “**** (compound exhibited 25-50% inhibition at 10 μM)”.
`Cc1ccc(N2CCc3ncnc(N(C)Cc4ccc(Cl)cc4)c3C2)nc1` [Compound 62]: the “Ca Influx P2X2/3C % Inhibition” value under setting [1] is on record as “+/ (compound exhibited 0-25% inhibition at 3 μM)”.
Turning to `Cc1ccc(N2CCc3ncnc(NCc4ccccc4C(F)(F)F)c3C2)nc1` [Compound 39], the “Ca Influx P2X2/3C % Inhibition” value under setting [1] is “+++/ ^ (compound exhibited 50-75% inhibition at 3 μM)”.
As for `Cc1ccc(N2CCc3ncnc(NCc4ccc(Cl)c(Cl)c4)c3C2)nc1` [Compound 85], the “Ca Influx P2X2/3C % Inhibition” value under setting [1] is listed as “+/ (compound exhibited 0-25% inhibition at 3 μM)”.
As to `Cc1ccc(N2CCc3ncnc(NCc4ccc(C)cc4C)c3C2)nc1` [Compound 79], the “Ca Influx P2X2/3C % Inhibition” value under setting [1] is listed as “++/ (compound exhibited 25-50% inhibition at 3 μM)”.
With `Cc1ccc(N2CCc3ncnc(N(C)Cc4ccccc4)c3C2)nc1` [Compound 36], the “Ca Influx P2X2/3C % Inhibition” value under setting [1] was “+/ (compound exhibited 0-25% inhibition at 3 μM)”.
